This data set is described as follows: Solubilisation of resveratrol in the self emulsifying cosmetic base (mixing at 30-40° C.). It is filed as physicochemical. Conditions: Example 2, no co-emulsifier, continuous mixing at 30-40° C. As for the experimental part: A self emulsifying cosmetic base exempt of co-emulsifier was prepared by dissolving resveratrol in trilaureth-4 phosphate by continuous mixing at moderate temperature (30-40° C.). […] In all cases spontaneously an aqueous emulsion was formed which upon separation (after >1 week) could be easily re-formed by mere shaking.

We go through 1 compound from patent publication US9283161B2, “Aqueous cosmetic compositions containing resveratrol solubilized in a liquid phosphate ester surfactant” (DSM IP ASSETS B.V., priority 2011, dated 2016).

Each structure is given as a SMILES string.

Consider `Oc1ccc(/C=C/c2cc(O)cc(O)c2)cc1` [resveratrol], for which the “appearance after dissolving resveratrol in trilaureth-4 phosphate” value is “clear solution”.
